Results: ChEMBL document CHEMBL1201862, “PubChem BioAssay data set” (2004)
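Method: 48-hour compound exposure of cells in 96-well plates, five concentrations, linear interpolation of endpoints. GI50 = concentration required for 50% inhibition of growth.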 Active and inactive are the calls of the source. Cut-off read from the data, not from the text of the source: active = GI50 up to about 1.1 µM and inactive = higher.

How the values were obtained:
Experiment in all cases: NCI anticancer screen, dose series, 48 h
[1] = system: A549
[2] = system: ACHN
[3] = system: DU-145
[4] = system: HCT-116
[5] = system: HCT-15
[6] = system: HOP-92
[7] = system: HT-29
[8] = system: Hs-578T
[9] = system: IGROV-1
[10] = system: MDA-MB-435
[11] = system: NCI-H226
[12] = system: NCI-H23
[13] = system: PC-3
[14] = system: RXF 393
[15] = system: SF-268
[16] = system: UACC-62
[17] = system: MDA-MB-231
[18] = system: CAKI-1

In the case of `CCCCCCOc1ccc(NC2=C(Cl)C(=O)c3cccnc3C2=O)cc1`, the GI50 [1] is reported as 1.95 µM (inactive), the GI50 [2] is reported as 2.1 µM (inactive) and the GI50 [3] is reported as 1.55 µM (inactive). The GI50 [4] was 0.895 µM (active), the GI50 [5] was 1.79 µM and the GI50 [6] was 2.02 µM (inactive). For the same compound, the GI50 [7] was 2.62 µM (inactive), the GI50 [8] was 8.02 µM (inactive) and the GI50 [9] was 1.88 µM (inactive). For the same compound, the GI50 [10] was 1.75 µM (inactive), the GI50 [11] was 1.74 µM (inactive) and the GI50 [12] was 1.74 µM (inactive). For the same compound, the GI50 [13] was 2.41 µM (inactive), the GI50 [14] was 1.37 µM (inactive) and the GI50 [15] was 2.11 µM (inactive). The GI50 [16] was 1.07 µM (active).

`OCc1c2c(cc3c1CC1(C3)Cc3cc4c(c(CO)c3C1)CCC4)CCC2` was tested, and the GI50 [1] was 14.4 µM (inactive), the GI50 [2] was 10.3 µM (inactive) and the GI50 [4] was 13.6 µM (inactive). The GI50 [5] was 18 µM, the GI50 [6] was 18.5 µM (inactive) and the GI50 [7] was 17.1 µM (inactive). For the same compound, the GI50 [8] was 17.5 µM (inactive), the GI50 [9] was 15.5 µM (inactive) and the GI50 [17] was 15.2 µM (inactive). For the same compound, the GI50 [10] was 20.6 µM (inactive), the GI50 [11] was 11.6 µM (inactive) and the GI50 [12] was 13.1 µM (inactive). For the same compound, the GI50 [13] was 15.3 µM (inactive), the GI50 [14] was 16.6 µM (inactive) and the GI50 [16] was 16.7 µM (inactive).

With `O=C(NCC(O)COc1ccccc1)c1ccccc1O` (stereo not given) the GI50 [1] was > 100 µM (inactive), the GI50 [2] was > 100 µM (inactive) and the GI50 [18] was > 100 µM (inactive). For the same compound, the GI50 [3] was > 100 µM (inactive), the GI50 [4] was > 100 µM (inactive) and the GI50 [5] was > 100 µM. The GI50 [6] was 86.1 µM (inactive), the GI50 [9] was > 100 µM (inactive) and the GI50 [17] was > 100 µM (inactive). The GI50 [10] was > 100 µM (inactive), the GI50 [11] was > 100 µM (inactive) and the GI50 [12] was > 100 µM (inactive). For the same compound, the GI50 [13] was 66.1 µM (inactive), the GI50 [14] was > 100 µM (inactive) and the GI50 [16] was 55 µM (inactive).

For `COc1ccc(-c2nc(-c3cnccn3)n(C3OC(CO)C(O)C(O)C3O)n2)cc1` (stereo not given), the GI50 [1] was > 100 µM (inactive), the GI50 [3] was > 100 µM (inactive) and the GI50 [4] was > 100 µM (inactive). For the same compound, the GI50 [5] was > 100 µM, the GI50 [6] was > 100 µM (inactive) and the GI50 [7] was > 100 µM (inactive). For the same compound, the GI50 [9] was > 100 µM (inactive), the GI50 [17] was > 100 µM (inactive) and the GI50 [10] was > 100 µM (inactive). For the same compound, the GI50 [12] was > 100 µM (inactive), the GI50 [13] was > 100 µM (inactive) and the GI50 [14] was > 100 µM (inactive). For the same compound, the GI50 [15] was > 100 µM (inactive) and the GI50 [16] was > 100 µM (inactive).

`CCOC(=O)C1CCC(=O)N1C(=O)c1ccc(Cl)cc1` (stereo not given) was tested, and the GI50 [1] was > 100 µM (inactive), the GI50 [2] was > 100 µM (inactive) and the GI50 [18] was > 100 µM (inactive). The GI50 [3] was > 100 µM (inactive), the GI50 [4] was > 100 µM (inactive) and the GI50 [5] was > 100 µM. The GI50 [6] was > 100 µM (inactive), the GI50 [7] was > 100 µM (inactive) and the GI50 [8] was > 100 µM (inactive). For the same compound, the GI50 [9] was > 100 µM (inactive), the GI50 [17] was > 100 µM (inactive) and the GI50 [10] was > 100 µM (inactive). For the same compound, the GI50 [11] was > 100 µM (inactive), the GI50 [12] was > 100 µM (inactive) and the GI50 [14] was > 100 µM (inactive). The GI50 [15] was > 100 µM (inactive) and the GI50 [16] was 22.3 µM (inactive).

For `CC1(C)C2CC(=O)C1(C)C(OCc1ccccc1)C2` (stereo not given), the GI50 [1] was 74.3 µM (inactive), the GI50 [2] was > 100 µM (inactive) and the GI50 [18] was 40.6 µM (inactive). The GI50 [3] was > 100 µM (inactive), the GI50 [4] was 25.1 µM (inactive) and the GI50 [5] was 26.8 µM. For the same compound, the GI50 [7] was 40.6 µM (inactive), the GI50 [8] was 22 µM (inactive) and the GI50 [9] was > 100 µM (inactive). The GI50 [17] was 44 µM (inactive), the GI50 [10] was 47 µM (inactive) and the GI50 [11] was > 100 µM (inactive). For the same compound, the GI50 [12] was 27.2 µM (inactive), the GI50 [13] was 34.4 µM (inactive) and the GI50 [15] was > 100 µM (inactive). For the same compound, the GI50 [16] was 62.5 µM (inactive).

For `CC(=O)NNC1=NN(C(C)=O)C2(S1)C(=O)Nc1ccccc12` (stereo not given), the GI50 [2] was > 100 µM (inactive), the GI50 [18] was > 100 µM (inactive) and the GI50 [3] was > 100 µM (inactive). For the same compound, the GI50 [4] was > 100 µM (inactive), the GI50 [5] was > 100 µM and the GI50 [7] was > 100 µM (inactive). The GI50 [9] was > 100 µM (inactive), the GI50 [17] was > 100 µM (inactive) and the GI50 [10] was > 100 µM (inactive). For the same compound, the GI50 [11] was > 100 µM (inactive), the GI50 [12] was > 100 µM (inactive) and the GI50 [13] was 45 µM (inactive). The GI50 [15] was > 100 µM (inactive) and the GI50 [16] was > 100 µM (inactive).

With `Clc1ccc(Nc2nnc(CNc3ccc(-c4nnc(Nc5ccc(Cl)cc5)s4)cc3)s2)cc1` the GI50 [1] was 16.1 µM (inactive), the GI50 [2] was 20.2 µM (inactive) and the GI50 [18] was 42.6 µM (inactive). The GI50 [3] was 22.5 µM (inactive), the GI50 [4] was 12.5 µM (inactive) and the GI50 [5] was 25.1 µM. For the same compound, the GI50 [6] was 74.6 µM (inactive), the GI50 [7] was 11 µM (inactive) and the GI50 [9] was 41.2 µM (inactive). For the same compound, the GI50 [17] was 25.8 µM (inactive), the GI50 [10] was 28.1 µM (inactive) and the GI50 [11] was 34.9 µM (inactive). The GI50 [12] was 39.3 µM (inactive), the GI50 [13] was 15 µM (inactive) and the GI50 [14] was 35.8 µM (inactive). For the same compound, the GI50 [15] was 26.9 µM (inactive) and the GI50 [16] was 21.2 µM (inactive).

For `CC(C)=CC1C(C(=O)Oc2ccccc2C(C)C)C1(C)C` (stereo not given), the GI50 [1] was 31.1 µM (inactive), the GI50 [2] was 18.4 µM (inactive) and the GI50 [18] was 32.4 µM (inactive). The GI50 [3] was 40.5 µM (inactive), the GI50 [4] was 20.8 µM (inactive) and the GI50 [5] was 21 µM. For the same compound, the GI50 [6] was 25.5 µM (inactive), the GI50 [7] was 16.4 µM (inactive) and the GI50 [8] was 39.9 µM (inactive). For the same compound, the GI50 [9] was 29.8 µM (inactive), the GI50 [17] was 22.9 µM (inactive) and the GI50 [10] was 30.8 µM (inactive). For the same compound, the GI50 [12] was 23.8 µM (inactive), the GI50 [14] was 16.9 µM (inactive) and the GI50 [15] was 35.5 µM (inactive). The GI50 [16] was 36.7 µM (inactive).
